Values of other authors as cited in patent US8058260B2, “2′-C-methyl-ribofuranosyl cytidine prodrugs, pharmaceutical compositions and uses thereof” (XenoPort, Inc., priority 2006, dated 2011).
Where two headings read alike, the source gives them in different places.

Experiments:
HCV = conditions: clinical evaluation as a treatment for HCV
[1] = human, in vivo
HCV NS5B polymerase = HCV NS5B polymerase (Hepatitis C virus genotype 1b, UniProt P26663)
HCV NS5B polymerase, sequence (P26663 2420-3010): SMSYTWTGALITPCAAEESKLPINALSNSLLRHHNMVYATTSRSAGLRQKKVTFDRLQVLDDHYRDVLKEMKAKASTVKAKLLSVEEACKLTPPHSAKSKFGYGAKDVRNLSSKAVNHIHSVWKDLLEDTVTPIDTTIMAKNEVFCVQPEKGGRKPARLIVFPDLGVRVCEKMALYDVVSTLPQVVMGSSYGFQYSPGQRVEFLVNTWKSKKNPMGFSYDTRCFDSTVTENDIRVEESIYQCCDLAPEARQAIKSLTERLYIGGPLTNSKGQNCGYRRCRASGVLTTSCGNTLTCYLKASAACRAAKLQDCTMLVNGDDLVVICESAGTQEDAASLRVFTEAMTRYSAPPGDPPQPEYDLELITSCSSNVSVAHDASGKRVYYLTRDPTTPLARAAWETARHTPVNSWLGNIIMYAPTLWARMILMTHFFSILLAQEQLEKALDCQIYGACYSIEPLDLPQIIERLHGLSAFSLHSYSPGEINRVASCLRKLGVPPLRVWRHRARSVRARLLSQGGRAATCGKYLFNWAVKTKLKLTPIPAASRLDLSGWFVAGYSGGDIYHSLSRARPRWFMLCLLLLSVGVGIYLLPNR

SMILES | antiviral activity (HCV) | bioavailability [1] | gastrointestinal toxicity / side-effects (in vivo, po) | inhibitory activity against the HCV NS5B polymerase (HCV NS5B polymerase) | gastrointestinal toxicity / side-effects (oral administration, nausea, vomiting, diarrhea in some patients)
CC(C)[C@H](N)C(=O)O[C@@H]1[C@@H](CO)O[C@@H](n2ccc(N)nc2=O)[C@]1(C)O [NM 283, 3′-O-L-valinyl ester of β-D-2′-C-methyl-ribofuranosyl cytidine] | significant antiviral activity | good bioavailability | gastrointestinal side-effects |  | 
C[C@@]1(O)[C@H](O)[C@@H](CO)O[C@H]1n1ccc(N)nc1=O [β-D-2′-C-methyl-ribofuranosyl cytidine] |  |  |  | potent inhibitory activity | gastrointestinal (GI) toxicity
